pIC50: −log10 of the molar value. Where “and” joins values, the source holds several entries; their conditions need not be identical. Identical values can stand only once.
What was measured:
[1] = Analgesic potency comparison with natural EETs and AM404; settings: in vivo
Description: Chemically, it is close structural analog of a set of lipid mediators derived from arachidonic acid that the body uses to control pain.

Adenosine/A2A = target: T1, Adenosine/A2A (Homo sapiens, UniProt P29274); assay: Cerep BioPrint dependence and addiction panel; type: binding
T1 construct: Cerep (contract screen)

Dopamine/D2S = Dopamine/D2S (Homo sapiens, UniProt P14416); assay: Cerep BioPrint dependence and addiction panel; type: binding
[2] = test system: TRPV1 vanilloid knockout mice; assay: Analgesic effect in TRPV1 vanilloid knockout mice; type: in vivo; settings: TRPV1 vanilloid knockout mice (homozygotes)
CB2 Cannabinoid agonist = target: T2, CB2 Cannabinoid agonist (Homo sapiens, UniProt P34972); assay: Cerep BioPrint receptor binding
T2 construct: Cerep (contract screen)
Protocol: (§1) For the initial BioPrint screen, a free compound concentration of 10 μM was used, which corresponds to a 2.5 mg/kg bolus dose in a mouse. […] Thus, a 2.5 mg/kg bolus dose would be equivalent to a […] free compound concentration.

δ- opioid agonist = target: T3, δ- opioid agonist (Homo sapiens, UniProt P41143); assay: Cerep BioPrint receptor binding
T3 construct: Cerep (contract screen)
Protocol: as §1

κ-opioid agonist = target: T4, κ-opioid agonist (Rattus norvegicus, UniProt P34975); assay: Cerep BioPrint receptor binding
T4 construct: Cerep (contract screen)
Protocol: as §1

CB1 Cannabinoid agonist = target: T5, CB1 Cannabinoid agonist (Homo sapiens, UniProt P21554); assay: Cerep BioPrint receptor binding
T5 construct: Cerep (contract screen)
Protocol: as §1

[3] = Intravenous analgesia: onset and duration of effect
dopamine levels = assay: Effect on dopamine levels; settings: compared with Δ9-THC
Dopamine/D3 = Dopamine/D3 (Homo sapiens, UniProt P35462); assay: Cerep BioPrint dependence and addiction panel; type: binding
Dopamine/D1 = Dopamine/D1 (Homo sapiens, UniProt P21728); assay: Cerep BioPrint dependence and addiction panel; type: binding
mice [4] = assay: LD50 established using mice; type: in vivo
Protocol: (§2) LD50 (abbreviation for “Lethal Dose, 50%”) is established using mice. The dose translation between mouse and human is based on body surface area allometric translation. For example, a 1 mg/kg mouse dose is equivalent to a 0.08 mg/kg human dose. For more information on species dose translation see: Reagan-Shaw et. al, FASEB J. 122, 659-661 (2007).

[5] = LD50 established using mice; type: in vivo; settings: in vivo, body surface area translation mouse to human
Protocol: as §2

Serotonin/5-Ht2A = target: T6, Serotonin/5-Ht2A (Homo sapiens, UniProt P28223); assay: Cerep BioPrint dependence and addiction panel; type: binding
T6 construct: Cerep (contract screen)

Serotonin/5-HT3 = Serotonin/5-HT3 (Homo sapiens, UniProt P46098); assay: Cerep BioPrint dependence and addiction panel; type: binding
[6] = target: T7, Dopamine/dopamine transporter (Homo sapiens, UniProt Q01959); assay: Cerep BioPrint dependence and addiction panel; type: binding
T7 construct: Cerep (contract screening panel)

plasma or serum proteins = assay: Binding to plasma or serum proteins; type: in vitro ADME
Protocol: as §1

[7] = LC/MS pharmacokinetics of CMX-020 in mice (plasma, brain, liver); settings: 15 min timepoint, 10 mg/kg iv, n=2 individual values
[8] = test system: Dopamine transporter/5HT transporter; assay: Cerep BioPrint dependence and addiction panel; type: binding
[9] = target: CL-Channel (GABA gated) antagonist; assay: Cerep BioPrint receptor binding
[10] = target: PPRA-Peroxisome proliferator-activated (Homo sapiens, UniProt P37231); assay: Cerep BioPrint receptor binding
GABA/GABAB(1b) = target: T8, GABA/GABAB(1b) (Homo sapiens, UniProt Q9UBS5); assay: Cerep BioPrint dependence and addiction panel; type: binding
T8 construct: Cerep (contract screen)

A3 agonist-Adenosine A3 = target: T9, A3 agonist-Adenosine A3 (Homo sapiens, UniProt P0DMS8); assay: Cerep BioPrint receptor binding
T9 construct: Cerep (contract screen)

[11] = test system: CB1 cannabinoid knockout mice; assay: Analgesic effect in CB1 cannabinoid knockout mice; type: in vivo; settings: CB1 cannabinoid knockout mice (homozygotes)
Glutamate/PCP = assay: Cerep BioPrint dependence and addiction panel; type: binding
Cholecystokinin/CCK2 = target: T10, Cholecystokinin/CCK2 (Homo sapiens, UniProt P32239); assay: Cerep BioPrint dependence and addiction panel; type: binding
T10 construct: Cerep (contract screen)

mice [12] = assay: Tail-flick assay in mouse; type: in vivo; settings: 10 mg/kg intravenous bolus
Protocol: The tail-flick assay is based on the time measured to reflex withdrawal of the tail in response to a radiant heat source. The maximum exposure time to the radiant heat source is set at 10 seconds. Prior to treatment, a baseline (BL) time measured to tail-flick withdrawal is determined after two exposures to the radiant source separated by a 30 min period. Control mice are intravenously treated with vehicle and test mice are intravenously treated with analgesic test compound. Data of tail-flick withdrawal of treated mice (TM) are calculated as maximum possible effect (MPE), where MPE=(TM−BL)/(10−BL). Tail-flick withdrawal is measured at 5 min, 15 min, 30 mm, and 1 hr. A total of 3-5 mice are used for each time point tested.

Antipyretic effect = type: in vivo, mice; settings: CMX-020 Injectable Solution
Protocol: CMX-020 Injectable Solution may also be given to patients during surgery or dental procedures to relieve pain and as an adjunct to an anaesthetic.
Recordings of body temperature in male mice (30 grams) were achieved using a mouse rectal temperature probe. Baseline was recorded twice for 10 minutes at intervals of 2 minutes with a 15 minute span of no recording.

ATPase/ATPase(Na+/K+) = assay: Cerep BioPrint dependence and addiction panel (enzyme); type: biochemical
Melanocortin/MC4 = target: T11, Melanocortin/MC4 (Homo sapiens, UniProt P32245); assay: Cerep BioPrint dependence and addiction panel; type: binding
T11 construct: Cerep (contract screen)

Serotonin/5-HT1A = target: T12, Serotonin/5-HT1A (Homo sapiens, UniProt P08908); assay: Cerep BioPrint dependence and addiction panel; type: binding
T12 construct: Cerep (contract screen)

in vivo = settings: mouse, iv, 10 mg/kg
[13] = test system: Sigma/Sigma non selective; assay: Cerep BioPrint dependence and addiction panel; type: binding
Opioid/NOP(ORL1) = target: T13, Opioid/NOP(ORL1) (Homo sapiens, UniProt P41146); assay: Cerep BioPrint dependence and addiction panel; type: binding
T13 construct: Cerep (contract screening panel)

TRPV1(VR1) agonist = target: T14, TRPV1(VR1) agonist (Rattus norvegicus, UniProt O35433); assay: Cerep BioPrint receptor binding
T14 construct: Cerep (contract screen)

[14] = target: T15, Serotonin/5HT transporter (Homo sapiens, UniProt P31645); assay: Cerep BioPrint dependence and addiction panel; type: binding
T15 construct: Cerep (contract screening panel)

mice [15] = assay: Writhing assay in mouse (bolus and continuous infusion); type: in vivo
Glutamate/AMPA = assay: Cerep BioPrint dependence and addiction panel; type: binding
[16] = target: T16, MT1(ML1A) agonist-Melatonin (Homo sapiens, UniProt P48039); assay: Cerep BioPrint receptor binding
T16 construct: Cerep (contract screen)

Opioid/mu(MOP) = target: T17, Opioid/mu(MOP) (Homo sapiens, UniProt P35372); assay: Cerep BioPrint dependence and addiction panel; type: binding
T17 construct: Cerep (contract screening panel)

GABA/GABAA = assay: Cerep BioPrint dependence and addiction panel; type: binding
Steroid nuclear/GR = target: T18, Steroid nuclear/GR (Homo sapiens, UniProt P04150); assay: Cerep BioPrint dependence and addiction panel; type: binding
T18 construct: Cerep (contract screening panel)

[17] = CMX-020 Injectable Emulsion, from mouse writhing assay
[18] = continuous infusion, from mouse writhing assay

T16 sequence (P48039 whole entry): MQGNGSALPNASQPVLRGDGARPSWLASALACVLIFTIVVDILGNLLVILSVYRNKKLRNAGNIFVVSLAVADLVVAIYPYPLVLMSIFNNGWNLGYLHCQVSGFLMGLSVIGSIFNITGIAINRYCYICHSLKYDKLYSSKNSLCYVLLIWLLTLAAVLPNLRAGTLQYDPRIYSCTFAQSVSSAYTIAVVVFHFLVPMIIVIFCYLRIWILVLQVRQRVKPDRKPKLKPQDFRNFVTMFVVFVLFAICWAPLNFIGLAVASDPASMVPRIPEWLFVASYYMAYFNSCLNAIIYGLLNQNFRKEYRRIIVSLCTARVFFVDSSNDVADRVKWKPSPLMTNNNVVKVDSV
T5 sequence (P21554 whole entry): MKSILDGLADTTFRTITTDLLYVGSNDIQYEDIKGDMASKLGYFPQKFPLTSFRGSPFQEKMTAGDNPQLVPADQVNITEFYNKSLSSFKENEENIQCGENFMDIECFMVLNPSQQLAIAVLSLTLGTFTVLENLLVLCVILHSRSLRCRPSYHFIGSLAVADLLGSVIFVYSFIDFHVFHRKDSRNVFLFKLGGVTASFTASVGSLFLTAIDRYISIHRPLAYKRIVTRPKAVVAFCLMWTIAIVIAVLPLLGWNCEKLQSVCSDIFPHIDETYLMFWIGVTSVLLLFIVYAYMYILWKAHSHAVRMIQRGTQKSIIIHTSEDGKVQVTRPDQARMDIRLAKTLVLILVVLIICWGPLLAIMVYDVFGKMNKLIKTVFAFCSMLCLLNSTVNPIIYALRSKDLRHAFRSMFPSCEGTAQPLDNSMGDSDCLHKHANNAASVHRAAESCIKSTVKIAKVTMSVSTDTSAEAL
T4 sequence (P34975 whole entry): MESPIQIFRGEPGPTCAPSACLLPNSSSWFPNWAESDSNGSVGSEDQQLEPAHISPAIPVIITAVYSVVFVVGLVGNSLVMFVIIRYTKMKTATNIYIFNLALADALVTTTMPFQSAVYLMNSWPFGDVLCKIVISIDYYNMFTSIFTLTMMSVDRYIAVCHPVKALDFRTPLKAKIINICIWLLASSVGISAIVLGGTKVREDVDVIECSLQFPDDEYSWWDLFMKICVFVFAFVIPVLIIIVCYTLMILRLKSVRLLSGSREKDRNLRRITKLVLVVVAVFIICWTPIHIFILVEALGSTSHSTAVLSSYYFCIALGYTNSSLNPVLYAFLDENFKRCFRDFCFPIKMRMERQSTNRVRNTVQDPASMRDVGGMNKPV
T9 sequence (P0DMS8 whole entry): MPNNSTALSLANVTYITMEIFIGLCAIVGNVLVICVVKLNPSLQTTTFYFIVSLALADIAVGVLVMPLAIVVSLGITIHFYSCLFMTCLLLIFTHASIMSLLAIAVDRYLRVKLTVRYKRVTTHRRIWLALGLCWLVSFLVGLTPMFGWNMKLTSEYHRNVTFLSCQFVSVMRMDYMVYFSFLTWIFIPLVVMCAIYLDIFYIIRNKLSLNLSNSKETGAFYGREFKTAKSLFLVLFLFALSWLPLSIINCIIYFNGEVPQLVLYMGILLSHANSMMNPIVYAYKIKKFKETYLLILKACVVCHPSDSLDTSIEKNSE
T2 sequence (P34972 whole entry): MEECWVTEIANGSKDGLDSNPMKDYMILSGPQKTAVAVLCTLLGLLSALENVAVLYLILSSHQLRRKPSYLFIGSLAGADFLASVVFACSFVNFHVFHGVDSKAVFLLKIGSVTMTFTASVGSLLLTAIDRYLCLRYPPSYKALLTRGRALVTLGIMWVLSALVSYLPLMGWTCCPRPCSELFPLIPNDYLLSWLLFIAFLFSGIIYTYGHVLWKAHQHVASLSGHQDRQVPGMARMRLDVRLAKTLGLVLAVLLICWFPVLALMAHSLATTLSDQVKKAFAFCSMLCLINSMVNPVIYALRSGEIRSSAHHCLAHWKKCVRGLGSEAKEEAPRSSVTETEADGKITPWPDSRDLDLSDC
T3 sequence (P41143 whole entry): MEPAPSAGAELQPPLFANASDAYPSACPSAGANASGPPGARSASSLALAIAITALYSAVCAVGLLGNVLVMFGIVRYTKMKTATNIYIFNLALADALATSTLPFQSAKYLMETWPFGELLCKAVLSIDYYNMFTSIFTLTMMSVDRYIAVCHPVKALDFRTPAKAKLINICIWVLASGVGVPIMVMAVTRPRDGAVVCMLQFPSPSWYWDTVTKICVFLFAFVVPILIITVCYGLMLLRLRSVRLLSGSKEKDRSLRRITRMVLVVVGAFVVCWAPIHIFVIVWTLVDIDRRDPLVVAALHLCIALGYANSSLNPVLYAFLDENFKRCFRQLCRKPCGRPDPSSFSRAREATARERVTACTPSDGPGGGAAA
T14 sequence (O35433 whole entry): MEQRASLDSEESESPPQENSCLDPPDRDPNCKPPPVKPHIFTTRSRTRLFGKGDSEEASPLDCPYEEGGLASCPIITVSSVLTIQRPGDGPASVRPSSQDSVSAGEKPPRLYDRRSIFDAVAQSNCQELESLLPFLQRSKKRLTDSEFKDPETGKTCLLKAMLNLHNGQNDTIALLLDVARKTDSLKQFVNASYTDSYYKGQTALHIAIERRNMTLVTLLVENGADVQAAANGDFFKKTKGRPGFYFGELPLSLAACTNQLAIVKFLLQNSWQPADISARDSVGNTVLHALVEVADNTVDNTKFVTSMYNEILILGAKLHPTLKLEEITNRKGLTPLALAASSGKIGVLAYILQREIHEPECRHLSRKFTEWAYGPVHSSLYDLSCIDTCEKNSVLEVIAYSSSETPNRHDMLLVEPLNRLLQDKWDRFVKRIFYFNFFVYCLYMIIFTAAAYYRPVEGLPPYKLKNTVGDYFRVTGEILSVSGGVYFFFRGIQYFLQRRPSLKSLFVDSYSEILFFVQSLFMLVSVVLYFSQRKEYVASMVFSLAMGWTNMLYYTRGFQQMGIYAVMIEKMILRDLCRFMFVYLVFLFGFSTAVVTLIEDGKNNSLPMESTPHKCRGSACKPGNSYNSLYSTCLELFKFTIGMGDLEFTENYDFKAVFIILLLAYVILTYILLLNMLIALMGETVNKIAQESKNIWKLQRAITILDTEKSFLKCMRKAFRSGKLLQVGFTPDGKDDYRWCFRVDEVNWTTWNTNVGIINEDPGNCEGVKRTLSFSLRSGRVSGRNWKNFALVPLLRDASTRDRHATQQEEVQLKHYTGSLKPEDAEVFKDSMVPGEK
T11 sequence (P32245 whole entry): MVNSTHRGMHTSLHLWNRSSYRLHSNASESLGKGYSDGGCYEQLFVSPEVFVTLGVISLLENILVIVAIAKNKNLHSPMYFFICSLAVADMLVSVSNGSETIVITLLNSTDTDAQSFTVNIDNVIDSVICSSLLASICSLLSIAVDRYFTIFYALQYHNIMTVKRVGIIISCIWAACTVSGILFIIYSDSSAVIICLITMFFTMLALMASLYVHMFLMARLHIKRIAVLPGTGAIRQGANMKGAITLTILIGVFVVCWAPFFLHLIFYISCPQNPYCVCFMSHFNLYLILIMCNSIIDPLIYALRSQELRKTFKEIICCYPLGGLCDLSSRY
Dopamine/D3, sequence (P35462 whole entry): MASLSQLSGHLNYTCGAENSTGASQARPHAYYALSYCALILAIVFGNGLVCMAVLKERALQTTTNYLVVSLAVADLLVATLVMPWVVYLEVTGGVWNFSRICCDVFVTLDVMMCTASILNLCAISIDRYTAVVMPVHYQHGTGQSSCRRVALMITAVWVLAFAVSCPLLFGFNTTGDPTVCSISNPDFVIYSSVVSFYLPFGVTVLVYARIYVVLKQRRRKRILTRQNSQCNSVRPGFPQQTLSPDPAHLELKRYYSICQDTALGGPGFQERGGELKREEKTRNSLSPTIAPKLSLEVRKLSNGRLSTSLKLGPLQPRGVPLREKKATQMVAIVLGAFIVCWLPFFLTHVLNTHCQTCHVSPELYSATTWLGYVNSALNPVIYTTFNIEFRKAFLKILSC
T18 sequence (P04150 whole entry): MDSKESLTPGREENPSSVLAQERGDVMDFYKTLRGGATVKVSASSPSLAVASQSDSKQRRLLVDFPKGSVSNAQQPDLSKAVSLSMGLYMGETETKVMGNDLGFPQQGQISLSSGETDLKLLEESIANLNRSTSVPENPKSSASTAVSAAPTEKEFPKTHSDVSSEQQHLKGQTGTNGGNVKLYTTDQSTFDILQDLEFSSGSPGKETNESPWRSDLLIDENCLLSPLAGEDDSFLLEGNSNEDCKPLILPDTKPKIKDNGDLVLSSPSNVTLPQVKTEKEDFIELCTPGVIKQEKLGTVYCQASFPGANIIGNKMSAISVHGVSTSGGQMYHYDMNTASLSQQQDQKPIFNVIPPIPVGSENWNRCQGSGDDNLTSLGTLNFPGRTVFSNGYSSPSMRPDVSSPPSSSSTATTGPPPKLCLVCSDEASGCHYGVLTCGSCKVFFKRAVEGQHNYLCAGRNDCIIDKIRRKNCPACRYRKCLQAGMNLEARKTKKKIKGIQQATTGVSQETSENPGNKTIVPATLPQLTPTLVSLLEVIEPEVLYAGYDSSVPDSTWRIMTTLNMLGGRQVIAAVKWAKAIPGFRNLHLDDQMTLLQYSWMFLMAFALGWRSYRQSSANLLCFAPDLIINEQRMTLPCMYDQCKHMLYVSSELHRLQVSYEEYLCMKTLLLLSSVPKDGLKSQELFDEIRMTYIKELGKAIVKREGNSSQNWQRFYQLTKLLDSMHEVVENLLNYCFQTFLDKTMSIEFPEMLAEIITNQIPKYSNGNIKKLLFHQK
T13 sequence (P41146 whole entry, species assumed): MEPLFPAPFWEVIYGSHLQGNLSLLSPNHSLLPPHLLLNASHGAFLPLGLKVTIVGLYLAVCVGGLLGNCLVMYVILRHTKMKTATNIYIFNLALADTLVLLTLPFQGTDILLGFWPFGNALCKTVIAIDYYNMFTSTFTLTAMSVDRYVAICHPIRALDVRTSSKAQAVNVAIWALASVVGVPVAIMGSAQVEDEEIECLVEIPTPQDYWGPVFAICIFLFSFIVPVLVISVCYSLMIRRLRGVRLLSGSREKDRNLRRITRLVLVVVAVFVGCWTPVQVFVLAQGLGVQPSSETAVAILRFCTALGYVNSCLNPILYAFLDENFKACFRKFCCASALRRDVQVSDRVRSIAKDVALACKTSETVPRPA

CCCCCC1OC1C/C=C\C/C=C\C/C=C\CCCC(=O)O (stereo not drawn) [14,15-EET, 14,15-EET (epoxyeicosatrienoic acid), reference compound]
analgesic potency relative to natural EETs [1]: most potent analgesic of the natural EETs

CCCCCC(=O)N(CC/C=C\C/C=C\C/C=C\CCCC(=O)NC1CC1)C(C)C [CMX-020]
inhibition at 10 µM (Adenosine/A2A): 7% | % Inhibition @10 uM (Dopamine/D2S): 8% | analgesic effect in knockout mice [2]: altered | pIC50 (CB2 Cannabinoid agonist): 6.82 | inhibition at 10 µM (CB2 Cannabinoid agonist; CB2 Cannabinoid agonist, 10 uM): 98% | pIC50 (δ- opioid agonist): 4.89 | inhibition at 10 µM (δ- opioid agonist; δ- opioid agonist, 10 uM): 52% | pIC50 (κ-opioid agonist): 5.33 | inhibition at 10 µM (κ-opioid agonist; κ-opioid agonist, 10 uM): 61% | pIC50 (CB1 Cannabinoid agonist): 7.68 | inhibition at 10 µM (CB1 Cannabinoid agonist; CB1 Cannabinoid agonist, 10 uM): 98% | time to peak effect ([3]; animal tests): within minutes | time for which sustained levels of analgesia can be maintained ([3]; continuous infusion): ≥ 48 h | onset of analgesia after intravenous bolus injection or infusion ([3]; from the start of injection): 3 to 5 min | half-time of the blood-brain equilibration ([3]; intravenous): 1 to 3 min | duration of analgesic effect from bolus injection ([3]; intravenous bolus): 20 to 30 min and 20 to 25 min | effect on dopamine levels (dopamine levels): does not elevate dopamine levels | % Inhibition @10 uM (Dopamine/D3): 25% | % Inhibition @10 uM (Dopamine/D1): 7% | LD50 CMX-020 Doses, Maintenance (mice [4]; body surface area translation mouse to human): 6.4 mg/kg/h | LD50 CMX-020 Doses, Bolus (mice [4]; for a 70 kg human): 170 mg | LD50 CMX-020 Doses, Maintenance (mice [4]; for a 70 kg human): 450 mg/h | LD50 [5]: 2.4 mg/kg | inhibition at 10 µM (Serotonin/5-Ht2A): 29% | % Inhibition @10 uM (Serotonin/5-HT3): −1% | inhibition at 10 µM [6]: 15% | fraction unbound (plasma or serum proteins): ~0.01 | amount present in brain [7]: 843 ng/g tissue | amount present in liver [7]: 211 ng/g tissue | % Inhibition @10 uM [8]: 15% | pIC50 [9]: 5.29 | inhibition at 10 µM [10]: 58% | inhibition at 10 µM (GABA/GABAB(1b)): -6% | pIC50 (A3 agonist-Adenosine A3): 5.59 | inhibition at 10 µM (A3 agonist-Adenosine A3; A3 agonist-Adenosine A3, 10 uM): 64% | analgesic effect in knockout mice [11]: almost completely blocked | % Inhibition @10 uM (Glutamate/PCP): −6% | inhibition at 10 µM (Cholecystokinin/CCK2): -27% | time to maximal (full) analgesic response, tail-flick (mice [12]): 5 min | duration of the antipyretic effect after ending administration (Antipyretic effect): at least 2 hours | time to fever reduction after the start of administration (Antipyretic effect): ≤ 30 min | % Inhibition @10 uM (ATPase/ATPase(Na+/K+)): 12% | inhibition at 10 µM (Melanocortin/MC4): 0% | % Inhibition @10 uM (Serotonin/5-HT1A): 26% | analgesic potency in side-by-side comparison with AM404 [1]: more potent analgesic without the toxic effects | concentration at 15 min (in vivo; brain): 704 ng/g | concentration at 60 min (in vivo; brain): < 20 ng/g | concentration at 15 min (in vivo; liver): 170 ng/g | concentration at 60 min (in vivo; liver): < 20 ng/g | C0 (in vivo; plasma): ~14000 ng/mL and ~33 µM | half-life (in vivo; plasma): ~17 min | % Inhibition @10 uM [13]: 31% | solubility in water (Solubility in water): very slightly soluble | inhibition at 10 µM (Opioid/NOP(ORL1)): 5% | pIC50 (TRPV1(VR1) agonist): 5.12 | % Inhibition @10 uM (TRPV1(VR1) agonist; TRPV1(VR1) agonist, 10 uM): 59% | inhibition at 10 µM [14]: 10% | continuous infusion dose producing roughly the same level of analgesia (roughly 50% MPE), writhing assay (mice [15]; 24 hour infusion by Alzet pump, measured at 3 hours and 20 hours, preliminary): 2 mg/kg/h | analgesic response compared with Perfalgan 12.5 mg/kg, writhing assay (mice [15]; CMX-020 0.05 mg/kg): higher analgesic response than Perfalgan | Analgesic Equivalent to Acetaminophen 2x, Bolus dose (mice [15]; [17]): 0.02 mg/kg | Analgesic Equivalent to Acetaminophen 3x, Bolus dose (mice [15]; [17]): 0.04 mg/kg | time over which analgesic levels are sustained by continuous infusion (mice [15]; continuous infusion in mice): 24 h | Analgesic Equivalent to Acetaminophen 1x, Maintenance dose (mice [15]; [18]): 0.08 mg/kg/h | Analgesic Equivalent to Acetaminophen 2x, Maintenance dose (mice [15]; [18]): 0.16 mg/kg/h | Analgesic Equivalent to Acetaminophen 3x, Maintenance dose (mice [15]; [18]): 0.32 mg/kg/h | Analgesic Equivalent to Acetaminophen 1x, Bolus dose (mice [15]; for a 70 kg human): 0.6 mg | Analgesic Equivalent to Acetaminophen 1x, Maintenance dose (mice [15]; for a 70 kg human): 6 mg/h | Analgesic Equivalent to Acetaminophen 2x, Bolus dose (mice [15]; for a 70 kg human): 1.4 mg | Analgesic Equivalent to Acetaminophen 2x, Maintenance dose (mice [15]; for a 70 kg human): 11 mg/h | Analgesic Equivalent to Acetaminophen 3x, Bolus dose (mice [15]; for a 70 kg human): 2.8 mg | Analgesic Equivalent to Acetaminophen 3x, Maintenance dose (mice [15]; for a 70 kg human): 23 mg/h | dose achieving 100% MPE, writhing assay (mice [15]; intravenous bolus): approximately 0.5 mg/kg | dose dependence of the level of analgesia (mice [15]; mouse writhing assay): dose dependent | Analgesic Equivalent to Acetaminophen 1x, Bolus dose (mice [15]; mouse, in vivo, iv): 0.01 mg/kg | % Inhibition @10 uM (Glutamate/AMPA): 9% | pIC50 [16]: 5.92 | inhibition at 10 µM ([16]; MT1(ML1A) agonist-Melatonin, 10 uM): 88% | inhibition at 10 µM (Opioid/mu(MOP)): 26% | % Inhibition @10 uM (GABA/GABAA): 11% | inhibition at 10 µM (Steroid nuclear/GR): 9%
